The subject of experiment [1] is MOLT-4. The experiment can be described thus: NCI-60 screening, MOLT-4. Format: cell-based. To be noted: Homo sapiens, MOLT-4, read-out: GI50, MOLT-4.
Experiment [2] deals with TYK2 (Homo sapiens, UniProt P29597). Briefly: Kinase inhibition assay. Format: biochemical.
In experiment [3] the test system is HCT-15. The experiment can be described thus: NCI-60 screening, HCT-15. The format is cell-based. To be noted: Homo sapiens, HCT-15, read-out: GI50, HCT-15.
The target of experiment [4] is HDAC5 (Homo sapiens, UniProt Q9UQL6). The experiment can be described thus: In vitro HDAC enzyme assay. The format is biochemical.
Experiment [5] concerns HL60. The experiment can be described thus: NCI-60 screening, HL60. The format is cell-based. To be noted: Homo sapiens, HL-60, read-out: GI50, HL60.
In experiment [6] the target is HDAC3 (Homo sapiens, UniProt O15379). The experiment can be described thus: In vitro HDAC enzyme assay. Format: biochemical.
For experiment [7], the system named is HCT-116. The experiment can be described thus: NCI-60 screening, HCT-116. The format is cell-based. Conditions: Homo sapiens, HCT-116, read-out: GI50, HCT-116.
Experiment [8] concerns the target JAK3 (Homo sapiens, UniProt P52333). Briefly: Kinase inhibition assay. Format: biochemical.
In experiment [9] the test system is RPMI-8226. Briefly: NCI-60 screening, RPMI-8226. The format is cell-based. To be noted: Homo sapiens, RPMI-8226, read-out: GI50, RPMI-8226.
Experiment [10] has as its target T1, HDAC6 (Homo sapiens, UniProt Q9UBN7).
T1 sequence (Q9UBN7 1-1215): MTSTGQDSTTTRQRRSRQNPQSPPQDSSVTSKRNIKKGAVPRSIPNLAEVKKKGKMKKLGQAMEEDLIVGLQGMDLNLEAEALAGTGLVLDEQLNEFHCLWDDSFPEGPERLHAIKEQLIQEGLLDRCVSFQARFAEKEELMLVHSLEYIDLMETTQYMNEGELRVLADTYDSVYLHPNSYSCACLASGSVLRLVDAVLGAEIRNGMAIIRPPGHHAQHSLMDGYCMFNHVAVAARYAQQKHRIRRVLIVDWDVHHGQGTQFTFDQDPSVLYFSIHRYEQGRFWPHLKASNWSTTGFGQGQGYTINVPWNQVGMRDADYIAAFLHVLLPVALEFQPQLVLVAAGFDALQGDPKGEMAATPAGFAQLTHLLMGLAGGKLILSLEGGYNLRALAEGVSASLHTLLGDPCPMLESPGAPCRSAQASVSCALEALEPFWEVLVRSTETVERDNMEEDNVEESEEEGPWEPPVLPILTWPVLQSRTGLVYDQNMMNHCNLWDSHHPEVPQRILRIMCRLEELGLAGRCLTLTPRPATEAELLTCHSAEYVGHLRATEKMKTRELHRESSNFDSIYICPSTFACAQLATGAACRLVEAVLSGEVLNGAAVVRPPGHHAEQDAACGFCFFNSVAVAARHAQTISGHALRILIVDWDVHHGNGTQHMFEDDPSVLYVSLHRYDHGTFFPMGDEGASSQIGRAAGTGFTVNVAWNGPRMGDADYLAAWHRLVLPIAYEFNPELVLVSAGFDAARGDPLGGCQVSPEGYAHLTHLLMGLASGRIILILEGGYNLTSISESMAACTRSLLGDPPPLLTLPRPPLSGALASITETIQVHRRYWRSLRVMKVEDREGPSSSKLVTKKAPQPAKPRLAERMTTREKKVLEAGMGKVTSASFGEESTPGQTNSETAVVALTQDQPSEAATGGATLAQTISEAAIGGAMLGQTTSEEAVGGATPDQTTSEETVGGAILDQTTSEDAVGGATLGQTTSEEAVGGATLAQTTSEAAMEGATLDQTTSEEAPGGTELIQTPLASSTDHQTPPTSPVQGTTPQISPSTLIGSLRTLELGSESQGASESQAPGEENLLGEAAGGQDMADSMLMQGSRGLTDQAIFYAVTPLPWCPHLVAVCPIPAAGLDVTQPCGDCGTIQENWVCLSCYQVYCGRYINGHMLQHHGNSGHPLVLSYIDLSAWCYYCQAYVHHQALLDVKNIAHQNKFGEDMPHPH
Briefly: In vitro HDAC enzyme assay. Format: biochemical.

Chain of TYK2 (P29597 whole entry): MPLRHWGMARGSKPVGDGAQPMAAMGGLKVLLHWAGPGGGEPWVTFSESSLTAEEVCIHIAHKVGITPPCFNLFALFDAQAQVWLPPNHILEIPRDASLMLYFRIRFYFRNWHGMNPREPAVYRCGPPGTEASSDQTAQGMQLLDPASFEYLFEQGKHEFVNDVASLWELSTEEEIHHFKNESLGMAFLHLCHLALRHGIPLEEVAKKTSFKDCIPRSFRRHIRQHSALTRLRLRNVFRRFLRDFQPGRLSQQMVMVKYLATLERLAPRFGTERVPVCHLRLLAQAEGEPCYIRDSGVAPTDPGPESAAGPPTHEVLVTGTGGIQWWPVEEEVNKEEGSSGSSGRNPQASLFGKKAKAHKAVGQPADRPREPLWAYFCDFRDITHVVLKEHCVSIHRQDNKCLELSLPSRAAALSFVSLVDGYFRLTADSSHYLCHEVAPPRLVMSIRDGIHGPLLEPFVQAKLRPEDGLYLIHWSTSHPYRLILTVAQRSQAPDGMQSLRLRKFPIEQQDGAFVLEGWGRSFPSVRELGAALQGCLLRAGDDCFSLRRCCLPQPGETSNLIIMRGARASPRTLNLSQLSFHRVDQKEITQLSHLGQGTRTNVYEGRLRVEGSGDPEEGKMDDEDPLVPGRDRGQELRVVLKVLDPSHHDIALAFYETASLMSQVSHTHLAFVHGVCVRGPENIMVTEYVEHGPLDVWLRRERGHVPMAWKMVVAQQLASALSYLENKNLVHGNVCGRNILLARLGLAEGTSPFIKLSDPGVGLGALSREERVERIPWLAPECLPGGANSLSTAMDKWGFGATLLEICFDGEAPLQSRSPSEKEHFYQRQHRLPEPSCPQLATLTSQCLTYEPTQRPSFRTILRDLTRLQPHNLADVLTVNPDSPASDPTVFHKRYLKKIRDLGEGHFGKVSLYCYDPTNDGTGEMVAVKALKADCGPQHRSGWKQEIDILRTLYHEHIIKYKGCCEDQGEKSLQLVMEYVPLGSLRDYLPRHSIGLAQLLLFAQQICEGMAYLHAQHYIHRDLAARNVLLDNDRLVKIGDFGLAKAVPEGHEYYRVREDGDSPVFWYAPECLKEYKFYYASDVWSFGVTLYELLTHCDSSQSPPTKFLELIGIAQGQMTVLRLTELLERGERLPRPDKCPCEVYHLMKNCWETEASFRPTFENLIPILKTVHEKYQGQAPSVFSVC
Chain of HDAC5 (Q9UQL6 whole entry): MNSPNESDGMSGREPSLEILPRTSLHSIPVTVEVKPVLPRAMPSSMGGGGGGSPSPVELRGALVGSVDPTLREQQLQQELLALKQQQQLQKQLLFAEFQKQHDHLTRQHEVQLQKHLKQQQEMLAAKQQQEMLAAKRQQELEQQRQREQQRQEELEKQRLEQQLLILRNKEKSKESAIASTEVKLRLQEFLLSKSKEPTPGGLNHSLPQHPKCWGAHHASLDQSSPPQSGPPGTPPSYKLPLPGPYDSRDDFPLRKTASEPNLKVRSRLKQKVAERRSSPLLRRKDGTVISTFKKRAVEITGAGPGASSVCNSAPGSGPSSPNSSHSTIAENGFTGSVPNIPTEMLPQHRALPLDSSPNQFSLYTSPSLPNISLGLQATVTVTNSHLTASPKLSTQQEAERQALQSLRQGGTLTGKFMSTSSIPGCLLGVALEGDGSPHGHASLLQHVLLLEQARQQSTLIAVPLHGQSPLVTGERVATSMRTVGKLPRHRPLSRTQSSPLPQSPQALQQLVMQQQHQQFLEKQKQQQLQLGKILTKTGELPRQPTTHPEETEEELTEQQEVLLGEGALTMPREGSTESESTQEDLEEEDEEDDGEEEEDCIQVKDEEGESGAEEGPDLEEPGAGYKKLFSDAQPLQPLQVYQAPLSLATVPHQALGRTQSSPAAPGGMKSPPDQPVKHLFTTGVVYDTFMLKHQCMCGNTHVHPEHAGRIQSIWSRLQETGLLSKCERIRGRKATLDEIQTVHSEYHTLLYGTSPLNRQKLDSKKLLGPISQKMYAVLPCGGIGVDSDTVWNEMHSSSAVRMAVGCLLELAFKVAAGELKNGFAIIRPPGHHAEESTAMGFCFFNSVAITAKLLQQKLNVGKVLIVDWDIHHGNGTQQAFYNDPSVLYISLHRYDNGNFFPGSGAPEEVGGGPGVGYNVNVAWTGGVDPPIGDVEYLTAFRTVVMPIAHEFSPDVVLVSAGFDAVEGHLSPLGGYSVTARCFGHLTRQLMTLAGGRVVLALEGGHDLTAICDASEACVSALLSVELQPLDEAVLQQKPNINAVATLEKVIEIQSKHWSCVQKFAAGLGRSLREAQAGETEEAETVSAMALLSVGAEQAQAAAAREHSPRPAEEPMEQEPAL
Chain of JAK3 (P52333 whole entry): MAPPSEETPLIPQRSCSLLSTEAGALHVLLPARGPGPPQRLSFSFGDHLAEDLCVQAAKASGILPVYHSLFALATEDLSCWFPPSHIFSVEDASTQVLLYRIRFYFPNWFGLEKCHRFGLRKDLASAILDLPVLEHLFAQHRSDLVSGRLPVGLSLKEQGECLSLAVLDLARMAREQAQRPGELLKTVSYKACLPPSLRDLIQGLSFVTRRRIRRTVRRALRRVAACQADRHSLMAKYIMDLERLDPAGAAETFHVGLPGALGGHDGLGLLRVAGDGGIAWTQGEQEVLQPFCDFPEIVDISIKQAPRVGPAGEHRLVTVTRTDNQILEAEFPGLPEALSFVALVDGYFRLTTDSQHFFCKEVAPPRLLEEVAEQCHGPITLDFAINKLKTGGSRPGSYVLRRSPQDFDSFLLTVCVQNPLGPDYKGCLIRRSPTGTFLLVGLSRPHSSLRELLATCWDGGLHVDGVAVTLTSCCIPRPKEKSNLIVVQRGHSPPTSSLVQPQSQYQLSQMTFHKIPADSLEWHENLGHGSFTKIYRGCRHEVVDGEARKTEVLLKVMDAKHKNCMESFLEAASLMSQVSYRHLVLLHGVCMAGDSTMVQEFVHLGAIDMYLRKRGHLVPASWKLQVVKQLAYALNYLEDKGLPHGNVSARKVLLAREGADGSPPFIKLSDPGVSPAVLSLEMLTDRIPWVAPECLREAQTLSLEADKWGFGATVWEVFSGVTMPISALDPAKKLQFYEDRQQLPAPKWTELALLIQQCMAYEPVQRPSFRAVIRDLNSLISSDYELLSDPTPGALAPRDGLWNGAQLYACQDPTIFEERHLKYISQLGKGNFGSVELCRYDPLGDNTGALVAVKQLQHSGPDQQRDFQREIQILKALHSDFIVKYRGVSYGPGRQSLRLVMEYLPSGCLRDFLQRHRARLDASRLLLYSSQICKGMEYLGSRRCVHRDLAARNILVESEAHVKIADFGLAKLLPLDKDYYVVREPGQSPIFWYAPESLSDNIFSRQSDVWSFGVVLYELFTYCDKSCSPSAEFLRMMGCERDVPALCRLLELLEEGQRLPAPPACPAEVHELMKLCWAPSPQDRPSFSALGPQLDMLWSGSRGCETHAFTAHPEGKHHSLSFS
Chain of HDAC3 (O15379 whole entry): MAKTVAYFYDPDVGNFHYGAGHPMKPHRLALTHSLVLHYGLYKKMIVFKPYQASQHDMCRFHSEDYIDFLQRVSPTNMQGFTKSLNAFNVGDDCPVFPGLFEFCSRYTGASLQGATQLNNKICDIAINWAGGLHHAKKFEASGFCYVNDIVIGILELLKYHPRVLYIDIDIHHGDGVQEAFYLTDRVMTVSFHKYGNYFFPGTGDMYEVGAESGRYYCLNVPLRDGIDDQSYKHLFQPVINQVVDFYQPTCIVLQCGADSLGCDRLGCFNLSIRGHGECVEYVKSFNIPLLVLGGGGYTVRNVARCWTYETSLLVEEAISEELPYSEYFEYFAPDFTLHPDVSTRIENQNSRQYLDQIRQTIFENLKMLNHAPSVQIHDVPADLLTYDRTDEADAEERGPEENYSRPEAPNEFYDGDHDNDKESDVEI
Chain of HDAC3 (Q9Y618 395-489 partner limits assumed): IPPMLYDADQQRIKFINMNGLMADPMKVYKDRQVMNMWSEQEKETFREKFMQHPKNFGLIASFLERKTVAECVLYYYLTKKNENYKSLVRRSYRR

In general, GI50 refers to the concentration that inhibits growth by half. The term IC50 denotes the midpoint of a concentration-inhibition curve. A low value points to inhibition by little substance. Regarding `O=C(NO)c1ccc(CNc2nc3cccc(-c4ccc5c(c4)OCO5)n3n2)cc1` [Compound 19, 4-(((5-(Benzo[d][1, 3]dioxol-5-yl)-[1,2, 4]triazolo[1,5-a]pyridin-2-yl)amino)methyl)-N-hydroxybenzamide], the GI50 in experiment [1] worked out at 350 nM; in experiment [3], 690 nM; in experiment [5] it was 440 nM; in experiment [7], 440 nM; in experiment [9] it was 100 nM. Also, the IC50 in [2] is 860 ± 33 nM; in [4], > 50000 nM; in experiment [6], 83 ± 2.4 nM; in experiment [8], > 10000 nM; in [10], 4.3 ± 0.1 nM. For the same molecule, in experiment [2] (duplicate, SD <15%), the “TYK2 IC50” value is listed as “very poor inhibitory activities”. Further, the “HDAC5 IC50” value in experiment [4] (duplicate, SD <15%) is given as “no activity”. The “Fold weaker on HDAC3 than HDAC6” value in experiment [6] (IC50 HDAC3 vs HDAC6) is ~19 fold. Besides, the “JAK3 IC50” value in experiment [8] (duplicate, SD <15%) is given as “very poor inhibitory activities”.

The values are drawn from publication PMC11463018 (Journal of Enzyme Inhibition and Medicinal Chemistry, 2024).
